Assay results published in ChEMBL document CHEMBL3886459, “Benzylamine derivatives as inhibitors of plasma kallikrein” (2016).

Assays:
Coagulation factor XII = target: T1, Coagulation factor XII (Homo sapiens, UniProt P00748); test: Enzyme Assay: Human serine protease enzymes plasmin, thrombin, trypsin, Factor Xa and Factor XIIa were assayed for enzymatic activity using an appropriate fluorogenic substrate. Protease activity was measured by monitoring the accumulation of liberated fluorescence from the substrate over 5 minutes. The linear rate of fluorescence increase per minute was expressed as percentage (%) activity. The …
T1 sequence (P00748 whole entry): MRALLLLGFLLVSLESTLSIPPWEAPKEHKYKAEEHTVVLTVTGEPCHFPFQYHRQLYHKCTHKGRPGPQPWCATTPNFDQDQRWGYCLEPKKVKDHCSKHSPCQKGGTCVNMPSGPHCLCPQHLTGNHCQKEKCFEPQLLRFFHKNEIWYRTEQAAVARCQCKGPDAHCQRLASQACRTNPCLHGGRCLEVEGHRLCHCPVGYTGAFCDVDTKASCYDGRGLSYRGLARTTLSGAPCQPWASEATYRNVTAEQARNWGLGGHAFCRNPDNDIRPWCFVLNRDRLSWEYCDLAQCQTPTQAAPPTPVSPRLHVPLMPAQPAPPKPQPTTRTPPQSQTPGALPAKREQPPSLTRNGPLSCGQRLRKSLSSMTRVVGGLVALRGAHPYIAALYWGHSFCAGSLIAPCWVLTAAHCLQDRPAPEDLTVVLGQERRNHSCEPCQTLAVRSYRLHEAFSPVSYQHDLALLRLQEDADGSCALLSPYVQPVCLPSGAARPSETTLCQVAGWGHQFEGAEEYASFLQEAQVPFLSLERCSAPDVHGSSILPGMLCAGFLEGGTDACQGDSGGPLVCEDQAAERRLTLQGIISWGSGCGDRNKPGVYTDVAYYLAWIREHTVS
Description: Enzyme Assay: Human serine protease enzymes plasmin, thrombin, trypsin, Factor Xa and Factor XIIa were assayed for enzymatic activity using an appropriate fluorogenic substrate. Protease activity was measured by monitoring the accumulation of liberated fluorescence from the substrate over 5 minutes. The linear rate of fluorescence increase per minute was expressed as percentage (%) activity. The Km for the cleavage of each substrate was determined by standard transformation of the Michaelis-Menten equation.

Kallikrein-1 = Kallikrein-1 (Homo sapiens, UniProt P06870); test: (§1) In Vitro Inhibition Assay: KLK1 inhibitory activity in vitro was determined using standard published methods (see e.g. Johansen et al., Int. J. Tiss. Reac. 1986, 8, 185; Shori et al., Biochem. Pharmacol., 1992, 43, 1209; Stürzebecher et al., Biol. Chem. Hoppe-Seyler, 1992, 373, 1025). Human KLK1 (Callbiochem) was incubated at 37° C. with the fluorogenic substrate H-DVal-Leu-Arg-AFC and various concentrations of the test compound. Residual enzyme activity (initial rate of reaction) was determined by measuring the change in […] at 410 nm and the IC50 value for the test compound was determined.
Plasma kallikrein = Plasma kallikrein (Homo sapiens, UniProt P03952); test: as §1, with “Plasma kallikrein” for “KLK1”, “Stiirzebecher” for “Stürzebecher”, “plasma kallikrein (Protogen)” for “KLK1 (Callbiochem)”, “H-DPro-Phe-Arg-AFC” for “H-DVal-Leu-Arg-AFC”; type: cell-free
Sequence of Plasma kallikrein (P03952 20-390 limits assumed): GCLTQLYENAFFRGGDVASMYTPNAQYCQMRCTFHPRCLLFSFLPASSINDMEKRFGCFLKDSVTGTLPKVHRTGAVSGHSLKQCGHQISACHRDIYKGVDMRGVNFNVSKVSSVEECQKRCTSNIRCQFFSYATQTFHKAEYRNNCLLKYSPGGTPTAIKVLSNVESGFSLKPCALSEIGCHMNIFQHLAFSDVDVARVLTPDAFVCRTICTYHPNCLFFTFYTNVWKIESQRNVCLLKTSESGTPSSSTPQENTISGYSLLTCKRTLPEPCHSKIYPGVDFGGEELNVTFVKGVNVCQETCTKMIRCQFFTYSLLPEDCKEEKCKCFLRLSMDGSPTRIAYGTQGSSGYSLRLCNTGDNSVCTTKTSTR
Sequence of Plasma kallikrein (P03952 391-638 limits assumed): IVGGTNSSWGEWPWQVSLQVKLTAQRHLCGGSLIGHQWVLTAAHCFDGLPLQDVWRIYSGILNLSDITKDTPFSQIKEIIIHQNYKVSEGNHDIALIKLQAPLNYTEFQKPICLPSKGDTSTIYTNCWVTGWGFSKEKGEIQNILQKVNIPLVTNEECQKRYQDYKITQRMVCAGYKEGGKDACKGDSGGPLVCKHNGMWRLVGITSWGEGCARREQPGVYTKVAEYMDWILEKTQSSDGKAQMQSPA

Sequence of Kallikrein-1 (P06870 whole entry): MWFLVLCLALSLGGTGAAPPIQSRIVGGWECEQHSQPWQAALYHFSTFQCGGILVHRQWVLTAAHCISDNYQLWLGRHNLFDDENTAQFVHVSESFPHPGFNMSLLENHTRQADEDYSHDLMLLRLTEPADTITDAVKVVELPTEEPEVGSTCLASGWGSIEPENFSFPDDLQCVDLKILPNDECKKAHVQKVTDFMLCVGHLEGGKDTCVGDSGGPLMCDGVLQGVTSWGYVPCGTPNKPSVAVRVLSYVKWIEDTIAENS

| SMILES | IC50 (Coagulation factor XII) | IC50 (Kallikrein-1) | IC50 (Plasma kallikrein) |
| --- | --- | --- | --- |
| NCc1ccc(CNC(=O)[C@H](Cc2ccccc2)NC(=O)[C@@H](Cc2ccc(OCc3ccccc3)cc2)NC(=O)c2ccccc2)cc1 | – | > 10 µM | 1210 nM |
| CCOc1ccc(C[C@@H](NC(=O)c2ccc(OC)cc2)C(=O)N[C@@H](Cc2ccccc2)C(=O)NCc2ccc(CN)cc2)cc1 | > 10 µM | > 10 µM | 46 nM |
| CCOc1ccc(C[C@@H](NC(=O)c2ccccc2)C(=O)N[C@@H](Cc2c[nH]c3ccccc23)C(=O)NCc2ccc(CN)cc2)cc1 | – | > 10 µM | 28 nM |

More lines, now with the values ahead:

| IC50 (Coagulation factor XII) | IC50 (Kallikrein-1) | IC50 (Plasma kallikrein) | SMILES |
| --- | --- | --- | --- |
| > 10 µM | > 10 µM | 32 nM | CCOc1ccc(C[C@@H](NC(=O)c2ccc(C)cc2)C(=O)N[C@@H](Cc2ccccc2)C(=O)NCc2ccc(CN)cc2)cc1 |
| – | 9.5 µM | 40 nM | CCCOc1ccc(C[C@@H](NC(=O)c2ccccc2)C(=O)N[C@@H](Cc2ccccc2)C(=O)NCc2ccc(CN)cc2)cc1 |
| – | > 1 µM | 740 nM | NCc1ccc(CNC(=O)[C@H](Cc2ccccc2)NC(=O)[C@H](N)CC2CCCCC2)cc1 |
